Source: publication PMC6095594, “Pre-clinical evaluation of quinoxaline-derived chalcones in tuberculosis” (PLoS ONE, 2018)
In brackets after ≈: the same amount, converted by molar mass. Like-named read-outs stand apart in the source and are kept apart here.

Legend:
[1] = test system: M. tuberculosis drug-resistant clinical isolate CDCT-16; assay type: cell-based, Mycobacterium tuberculosis
[2] = test system: M. tuberculosis drug-resistant clinical isolate CDCT-27; assay type: cell-based, Mycobacterium tuberculosis
[3] = test system: M. tuberculosis pNIP::KatG(S315T); assay type: cell-based, Mycobacterium tuberculosis
[4] = test system: M. tuberculosis pNIP::InhA(S94A); assay type: cell-based, Mycobacterium tuberculosis
[5] = test system: M. tuberculosis drug-resistant clinical isolate CDCT-10; assay type: cell-based, Mycobacterium tuberculosis
[6] = test system: M. tuberculosis drug-resistant clinical isolate CDCT-10; settings: cited from earlier work
[7] = test system: M. tuberculosis drug-resistant clinical isolate CDCT-27; settings: cited from earlier work
[8] = test system: M. tuberculosis drug-resistant clinical isolate CDCT-16; settings: cited from earlier work

| SMILES | MIC [1] [µg/mL] | MIC [2] [µg/mL] | MIC [3] [µg/mL] | MIC [4] [µg/mL] | MIC [5] [µg/mL] | MIC [6] [µg/mL] | MIC [7] [µg/mL] | MIC [8] [µg/mL] |
| --- | --- | --- | --- | --- | --- | --- | --- | --- |
| NNC(=O)c1ccncc1 [INH, isoniazid, reference compound] | >100 | 25 (≈ 182 µM) | >100 | 12.5 (≈ 91.1 µM) | 6.25 (≈ 45.6 µM) |  |  |  |
| COc1ccc(OC)c(C(=O)/C=C/c2ccc3nccnc3c2)c1 [N9] | 3.13 (≈ 9.77 µM) | 3.13 (≈ 9.77 µM) | 1.56 (≈ 4.87 µM) | 3.13 (≈ 9.77 µM) | 1.56 (≈ 4.87 µM) |  |  |  |
| COc1cc(C(=O)/C=C/c2ccc3nccnc3c2)cc(OC)c1OC [N15] | 6.25 (≈ 17.8 µM) | 6.25 (≈ 17.8 µM) | 3.13 (≈ 8.93 µM) | 3.13 (≈ 8.93 µM) | 3.13 (≈ 8.93 µM) |  |  |  |
| COc1cccc(C(=O)/C=C/c2ccc3nccnc3c2)c1 [N23] | 5 (≈ 17.2 µM) | 5 (≈ 17.2 µM) | 1.25 (≈ 4.31 µM) | 2.5 (≈ 8.61 µM) | 2.5 (≈ 8.61 µM) |  |  |  |
| CO[C@H]1/C=C/O[C@@]2(C)Oc3c(C)c(O)c4c(O)c(c(/C=N/N5CCN(C)CC5)c(O)c4c3C2=O)NC(=O)/C(C)=C\C=C\[C@H](C)[C@H](O)[C@@H](C)[C@@H](O)[C@@H](C)[C@H](OC(C)=O)[C@@H]1C [RIF, Rifampicin] |  |  |  |  |  | >100 | <0.2 | >100 |
